Results: patent publication US9018260B2, “Indanesulfamide derivatives” (Eisai R&D Management Co., Ltd., priority 2012, dated 2015)

What was measured:
male ddY mice [1] = test: Rota rod test; assay type: in vivo, mouse; details: route p.o.; TD50 in rota rod test divided by ED50 in corneal kindling model
Method: (§1) Rotarod apparatus (Rota-rod MK-660C, Muromachi-Kikai Co., Ltd.) was used for measurement. The motor was turned on and the rod rotation was continuously accelerated to a rate of 40 rpm over 180 sec.
(§2) Male ddY mice at an age of 5 weeks (Japan SLC) were used. On the experiment day, the mice were pretrained and only the animals able to remain on the rod for at least 60 s were selected for experiment.
(§3) Test compounds were dissolved in the vehicle (0.45% methyl cellulose/4.5% cremophor/10% dimethyl sulfoxide), then orally (p.o.) administered to mice. The vehicle was orally administered as controls. The effects of compounds were studied in groups of six to ten animals.
(§4) Latency for mice to fall off from the rod was measured. The toxic dose at which fall off latency shorten by 50% of vehicle control value (TD50) was calculated.
(§5) Therapeutic index were calculated by dividing the respective TD50 value in rota rod test by the ED50 value determined in the corneal kindling model.

Rota rod test [2] = assay type: in vivo, mouse; details: male, ddY, mouse, in vivo, po; dose at which fall off latency shorten by 50% of vehicle control value
Method: as §1, §2, §3, §4, §5

[3] = test system: corneal kindled male C57Bl/6 mice; test: Mouse corneal kindling model; assay type: in vivo; details: for ED50: Mus musculus, dosage where 50% of animals showed seizure severity score 2 or less; for Seizure severity score (Average): Racine's scale
Source text: Male C57Bl/6 mice were stimulated twice daily for 10 days. The electric-stimulations with current intensities of 4.0 mA and duration of 3 s (pulse frequency 50 Hz) were applied via corneally placed saline-soaked copper electrodes.
Seizure severity was ranked according to a modified scoring system of the Racine's scale (Clin. Neurophysiol. 1972:32:281-294): Score 1, mild facial clonus and eye blinking; 2, severe facial clonus, head nodding, chewing; 3, unilateral or alternating forelimb clonus; 4, bilateral forelimb clonus with rearing; 5, bilateral forelimb clonus with rearing and falling; 6, tonic fore- and/or hindlimb extension. The fully kindled animals with the severity score 4 or more were used for evaluation.
Test compounds were dissolved in the vehicle (0.45% methyl cellulose/4.5% cremophor/10% DMSO), then orally (p.o.) or intraperitoneally (i.p.) administered to mice. The vehicle was orally administered as controls.
Electric stimulation was applied at 1 hour after p.o. or 20 minutes after i.p administration. Stimulation parameters were the same as during the kindling process. After electric stimulation, seizure severity was recorded for 30 seconds according to the Racine's scale.
Four to ten animals were used for calculation of average seizure severity score at each dose.

[4] = test system: amygdala kindled male Wistar Kyoto rats; test: Rat amygdala kindling model; assay type: in vivo; details: oral, 60 minutes after administration; FIGS. 1 to 3
Method: Male Wistar Kyoto rats (Charles River Japan) were used for the experiment. For implantation of kindling electrodes, rats were anesthetized with pentobarbital (65 mg/kg i.p.) and a tripolar electrode was implanted into the right hemisphere aimed at the basolateral amygdala using the coordinates derived from the atlas of Paxinos and Watson. Electrical stimulation of the amygdala was initiated following a recovery period of one week after surgery. […]
The threshold for induction of amygdala after discharges (ADT), i.e., epileptiform spikes on electroencephalogram (EEG), was measured for anti-seizure potency of compounds. In fully kindled rats, the ADT was determined by administering a series of stimulations beginning at […] and increasing in steps of about 25% of the previous current. […]
In the afternoon, test compounds were dissolved in the vehicle (a 1:1:1 mixture of polyethylene glycol 200, distilled water and DMSO), then orally administered to rats. […] The ADT was determined again 60 minutes after administration of drugs. The % of pre-value (morning results) was determined for each rat. Results were expressed as mean±SEM and analyzed by Dunnett's multiple comparisons test. […]

male ddY mice [5] = test: Rota rod test; assay type: in vivo, mouse; details: route i.p; TD50 in rota rod test divided by ED50 in corneal kindling model
Rota rod test [6] = assay type: in vivo, mouse; details: male, ddY, mouse, in vivo, intraperitoneal; route i.p; dose at which fall off latency shorten by 50% of vehicle control value
[7] = dose 10 mg/kg, p.o., stimulation 1 hour after administration
[8] = dose 25 mg/kg, p.o., stimulation 1 hour after administration
[9] = dose 50 mg/kg, p.o., stimulation 1 hour after administration
[10] = dose 10 mg/kg, i.p., stimulation 20 minutes after administration
[11] = dose 25 mg/kg, i.p., stimulation 20 minutes after administration

SMILES	Therapeutic index (male ddY mice [1])	TD50 (Rota rod test [2]) [mg/kg]	ED50 ([3]; po) [mg/kg]	Seizure severity score (Average) [3, 7]	Seizure severity score (Average) [3, 8]	Seizure severity score (Average) [3, 9]	after-discharge threshold (ADT), % of pre-value [4]	Therapeutic index (male ddY mice [5])	TD50 (Rota rod test [6]) [mg/kg]	ED50 ([3]; ip, route i.p) [mg/kg]	Seizure severity score (Average) [3, 10]	Seizure severity score (Average) [3, 11]
NS(=O)(=O)NC1c2c(Cl)cc(F)cc2CC1(F)F (single isomer, unassigned; (-)) [Example 6, (−)-N-(7-chloro-2,2,5-trifluoro-2,3-dihydro-1H-inden-1-yl)sulfamide]	30.1	307	10.2	1	0	0.25	dose-dependent elevation of after-discharge threshold					
NS(=O)(=O)NC1c2c(Cl)cccc2CC1(F)F (single isomer, unassigned; (-)) [Example 8, (−)-N-(7-chloro-2,2-difluoro-2,3-dihydro-1H-inden-1-yl)sulfamide]								11.2	119	10.6	3	0
NS(=O)(=O)N[C@H]1c2c(F)ccc(F)c2CC1(F)F [Example 2, N-[(1S)-2,2,4,7-tetrafluoro-2,3-dihydro-1H-inden-1-yl]sulfamide]	>13.0	> 200	15.4	4	0	0						
Cc1cccc2c1[C@H](NS(N)(=O)=O)C(F)(F)C2 [Example 11, N-[(1S)-2,2-Difluoro-7-methyl-2,3-dihydro-1H-inden-1-yl]sulfamide]	26.4	132	5	0.5	0		dose-dependent elevation of after-discharge threshold					
Cc1cc(F)cc2c1[C@H](NS(N)(=O)=O)C(F)(F)C2 [Example 12, N-[(1S)-2,2,5-Trifluoro-7-methyl-2,3-dihydro-1H-inden-1-yl]sulfamide]	25.5	143	5.6	0	0							
NS(=O)(=O)N[C@H]1CCc2c(F)ccc(F)c21 [Example 19, N-[(1S)-4,7-difluoro-2,3-dihydro-1H-inden-1-yl]sulfamide]	19.0	235	12.4	2	0							
NS(=O)(=O)N[C@H]1CCc2cc(F)cc(Cl)c21 [Example 21, N-[(1S)-7-chloro-5-fluoro-2,3-dihydro-1H-inden-1-yl]sulfamide]	22.1	234	10.6								4.25	2
NS(=O)(=O)NC1CCc2ccccc21 (stereo not drawn) [Reference compound, reference compound]	5.27	211	40	4.67	3.17	1.33						
